These results are taken from PMC4405350, “From Broad-Spectrum Biocides to Quorum Sensing Disruptors and Mussel Repellents: Antifouling Profile of Alkyl Triphenylphosphonium Salts” (PLoS ONE, 2015).

What all share (format): cell-based
One assay deals with Fusarium sp. Nature of the assay: Marine-derived fungi growth inhibition (OD405). The settings on record: 5 days, 26 °C. How it is done: All the biological assays were run by triplicate.
(§1) Three strains of marine-derived fungi were kindly provided by Dr. Á. Trigos (University of Veracruz, Mexico). The strains were isolated from reef organisms collected from the Veracruz Reef System and identified as Aspergillus sp., Fusarium sp. and Alternaria sp..
(§2) Fungal strains were cultured in Potato-Dextrose Agar (PDA) supplemented with filtered seawater (FSW) (50% v/v) at 26 °C for 5 days prior to experiments. […] Briefly, fungal inocula were prepared by addition of 5 ml of sterile saline solution to the cultures. Gently swabbing released conidia. […] The plates were incubated for 5 days at 26 °C. The calculation of the half-maximal inhibitory concentrations (IC50) was performed using OD405 as endpoint.

The subject of another assay is Aspergillus sp. Nature of the assay: Marine-derived fungi growth inhibition (OD405). The settings on record: growth inhibition, 5 days, 26 °C; read-out: IC50 Aspergillus sp. On the procedure: (§3) All the biological assays were run by triplicate. […] For the active products, serial dilutions were performed to calculate the half-maximal inhibitory concentrations (IC50) or the minimal inhibitory concentrations (MIC). Unless otherwise stated, the test concentrations were 100, 50, 25, 10, 5, 2.5, 1, 0.5 and 0.1 μM. Dose-response curves were adjusted with GraphPad Prism 5 software using a four-parameter non-linear regression model.
as §1, §2

A further assay deals with Alternaria sp. Nature of the assay: Marine-derived fungi growth inhibition (OD405). The settings on record: growth inhibition, 5 days, 26 °C; read-out: IC50 Alternaria sp. How it is done:
as §3, §1, §2

Assay [1] has as its system Gayralia oxysperma spores. Briefly: Macroalgal spore germination inhibition. The settings on record: 6 days, 19±1 °C. How it is done:
as §3
To evaluate the effect of the phosphonium salts on the germination of macroalgal spores, Gayralia oxysperma (Kützing) K.L.Vinogradova was selected as model organism. G. oxysperma (Ulotrichales, Chlorophyta) is a cosmopolitan member of the Ulvophyceae. Unlike Ulva species, which produce biflagellate male and female gametes, as well as quadriflagellate spores, G. oxysperma only produces biflagellate spores. This is an advantage as bioassays can be conducted straightforwardly without the need to distinguish between gamete-producing and zoospore-producing plants. […] Fresh fertile fragments were selected and placed in Petri dishes. Spores were then released in Von Stosch Solution (VSS) by the osmotic method. Bioassays were conducted in flat-bottom 96-well plates as described by Chambers and co-workers, with slight modifications. Each well was filled with 50 μl of the appropriate dilution of the products in VSS to which 50 μl of spore inoculum (ca. 2 x 10^5 spores ml^-1) were added. Plates were incubated at 19±1 °C for 6 days. After the incubation time, the bottom of each well was examined for the presence of germinated spores with an inverted microscope. A spore was considered as germinated when the germ tube was visible. The MIC was recorded as the lowest concentration inhibiting spore germination.

The subject of the next assay is Cobetia marina CECT 4278. Briefly: Marine bacteria growth inhibition (broth microdilution, OD625). The settings on record: growth inhibition, 24 h, 30 °C, three replicates; read-out: IC50 C. marina. How it is done: as §3
(§4) Growth inhibition was assessed in Marine Broth (Conda) according to CLSI guidelines for broth microdilution susceptibility testing. The incubation time was 24 h and the incubation temperature was 30 °C.

In assay [2] the test system is Cellulophaga lytica CECT 5014. The description is as above. The settings on record: growth inhibition, 24 h, 30 °C, three replicates; read-out: IC50 C. lytica. On the procedure:
as §3, §4

The subject of assay [3] is Pseudoalteromonas atlantica CECT 579. The description is as above. The settings on record: growth inhibition, 24 h, 30 °C, three replicates; read-out: IC50 P. atlantica. On the procedure: as §3, §4
Assay [4] relates to Vibrio anguillarum CECT 4347. The assay is described as above. The settings on record: growth inhibition, 24 h, 30 °C, three replicates; read-out: IC50 V. anguillarum. How it is done:
as §3, §4

The subject of assay [5] is Vibrio alginolyticus CECT 521. Described as above. The settings on record: growth inhibition, 24 h, 30 °C, three replicates; read-out: IC50 V. alginolyticus. How it is done:
as §3, §4

Assay [6] deals with Shewanella algae CECT 5021. The description is as above. The settings on record: growth inhibition, 24 h, 30 °C, three replicates; read-out: IC50 S. algae. How it is done:
as §3, §4

Assay [7] relates to Phaeodactylum tricornutum. Briefly: Benthic diatom growth inhibition (chlorophyll-a). The settings on record: growth, 5 days, chlorophyll-a; read-out: IC50 P. tricornutum. On the procedure:
as §3
(§5) Five strains of benthic diatoms, Nitszchia sp. […] The Nitzschia and Navicula strains were purchased from the Spanish Bank of Algae (Marine Biotechnology Center, University of Las Palmas de Gran Canaria). The other three strains were kindly provided by Dr. G. Courtois (University of Las Palmas de Gran Canaria). Diatoms were cultured at 19±1 °C in Erlenmeyer flaks (250 ml) containing 150 ml of Guillard’s F/2 medium, and subjected to a photoperiod of 18:6. Tests were run in 48-well plates. Inocula were prepared by adjusting diatom concentration to 2–4 × 10^6 cells ml^-1 using a Neubauer chamber. Test products were dissolved in F/2 medium (500 μl) to which diatom inocula (500 μl) were added. Thus, the final assay volume was 1 ml and the starting cell densities were ca. 1–2 x 10^6 diatoms ml^-1. Plates were incubated under the abovementioned conditions for 5 days and then chlorophyll-a (Chla) was quantified.
(§6) In order to extract Chla, the content of each well was transferred to a microcentrifuge tube and centrifuged at 10,000 rpm for 10 min. The supernatants were discarded and 200 μl of DMSO were added to the pellets. The tubes were incubated at 65 °C for 2 h in total darkness and vortexed every 30 min. Then, the content of each tube was transferred to a 96-well plate and the amount of Chla was determined spectrophotometrically. Path length correction factor for the DMSO extracts was determined.

For assay [8], the system named is Navicula cf. salinicola BEA 0055. Nature of the assay: Benthic diatom growth inhibition (chlorophyll-a). The settings on record: growth, 5 days, chlorophyll-a; read-out: IC50 Navicula cf. salinicola. How it is done:
as §3, §5, §6

A further assay deals with Nitzschia sp. Briefly: Benthic diatom growth inhibition (chlorophyll-a). The settings on record: growth, 5 days, chlorophyll-a; read-out: IC50 Nitzschia sp. On the procedure: as §3, §5, §6
The subject of the next assay is Amphora sp. Nature of the assay: Benthic diatom growth inhibition (chlorophyll-a). The settings on record: growth, 5 days, chlorophyll-a; read-out: IC50 Amphora sp. On the procedure:
as §3, §5, §6

For the next assay, the system named is Cylindrotheca sp. Briefly: Benthic diatom growth inhibition (chlorophyll-a). The settings on record: growth, 5 days, chlorophyll-a; read-out: IC50 Cylindrotheca sp. How it is done:
as §3, §5, §6

Usually IC50 stands for the midpoint of a concentration-inhibition curve. For “bis-(tris-n-butyltin)oxide [TBTO, reference compound]”, the half-maximal inhibitory concentration (IC50) was 6.7 µM with Fusarium sp.; 3000 nM in the assay on Aspergillus sp.; 600 nM with Alternaria sp.; 34.2 µM in the assay with Cobetia marina CECT 4278; 500 nM in assay [2]; 46.6 µM in assay [3]. For the same substance, the IC50 turned out to be 27.5 µM in assay [4]; 38.6 µM in assay [5]; 6.4 µM in assay [6]; 1700 nM in assay [7]; 6.3 µM in assay [8]; 2800 nM in the assay with Nitzschia sp.. The concentration for half-maximal inhibition (IC50) with Amphora sp. is 5.7 µM; with Cylindrotheca sp. it was 400 nM. In addition, in assay [1], the “MIC G. oxysperma (lowest concentration inhibiting spore germination)” value turned out to be 5 µM.
